In US20250034173A1, “PYRIDO[4,3-D]PYRIMIDINE COMPOUNDS” (PFIZER INC., priority 2023, published 2025):

What was measured:
KRAS Wild Type = KRAS Wild Type (Homo sapiens (Human), UniProt P01116); experiment: SPR binding affinity and kinetics, GTPγS-loaded KRAS Wild Type; conditions: GTPγS loaded protein, geomean
From the text: (§1) No additional regeneration was used.
(§2) Compound dissociation was monitored for at least 3600 seconds. […] No additional regeneration was used.
(§3) The adequateness of the fit was judged by c2 values and the randomness of residue distribution.

KRAS G12D = KRAS G12D (Homo sapiens (Human), UniProt P01116, G12D); experiment: SPR binding affinity and kinetics, GTPγS-loaded KRAS G12D; conditions: GTPγS loaded protein, geomean
Sequence of KRAS G12D (P01116 other isoform, or with tags, fused parts or gaps G12D): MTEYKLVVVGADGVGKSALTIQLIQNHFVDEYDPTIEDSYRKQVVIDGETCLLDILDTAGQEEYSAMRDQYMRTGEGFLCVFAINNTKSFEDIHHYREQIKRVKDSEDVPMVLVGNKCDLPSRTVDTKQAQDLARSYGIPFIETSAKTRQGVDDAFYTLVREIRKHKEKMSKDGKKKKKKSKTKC
From the text: as §1, §2, §3

KRAS G12C = KRAS G12C (Homo sapiens (Human), UniProt P01116, G12C); experiment: SPR binding affinity and kinetics, GTPγS-loaded KRAS G12C; conditions: GTPγS loaded protein, geomean
Sequence of KRAS G12C (P01116 other isoform, or with tags, fused parts or gaps G12C): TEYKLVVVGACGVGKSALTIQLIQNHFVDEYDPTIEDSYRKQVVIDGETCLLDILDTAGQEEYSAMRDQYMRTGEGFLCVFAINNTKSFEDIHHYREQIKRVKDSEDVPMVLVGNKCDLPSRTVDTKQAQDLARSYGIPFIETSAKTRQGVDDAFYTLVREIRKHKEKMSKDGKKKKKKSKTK
From the text: as §1, §2, §3

KRAS G12V = KRAS G12V (Homo sapiens (Human), UniProt P01116, G12V); experiment: SPR binding affinity and kinetics, GTPγS-loaded KRAS G12V; conditions: GTPγS loaded protein, geomean
Sequence of KRAS G12V (P01116 other isoform, or with tags, fused parts or gaps G12V): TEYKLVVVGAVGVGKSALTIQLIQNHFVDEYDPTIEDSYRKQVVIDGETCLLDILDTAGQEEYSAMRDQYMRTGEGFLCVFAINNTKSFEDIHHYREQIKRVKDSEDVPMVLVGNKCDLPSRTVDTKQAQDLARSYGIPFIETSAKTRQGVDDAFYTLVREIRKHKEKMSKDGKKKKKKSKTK
From the text: as §1, §2, §3

[1] = tested on: H358 (non-small cell lung cancer cell line); experiment: KRAS Cell Titer Glo (CTG) cell proliferation assay, H358; assay type: cell-based; conditions: Homo sapiens, NCI-H358, 168 h; H358 cells, 7-day CTG, geomean IC50
From the text: (§4) The CellTiter-Glo® (CTG) Luminescent Cell Viability Assay is a homogeneous method of determining the number of viable cells in culture based on quantitation of the ATP present, an indicator of metabolically active cells. The CTG is designed for use with multi-well formats, making it ideal for automated high-throughput screening (HTS), cell proliferation and cytotoxicity assays. The homogeneous assay procedure involves adding the single reagent (CellTiter-Glo® Reagent) directly to cells cultured in serum-supplemented medium. Cell washing, removal of medium and multiple pipetting steps are not required. The system detects as few as 15 cells per well in a 384-well format in 10 minutes after adding reagent and mixing.
(§5) Cells are grown in humidified 5% CO2 incubator at 37° C. using the culture conditions outlined below. All cell culture media reagents were purchased from Gibco. Cell lines purchased from ATCC: H358 (non-small cell lung cancer cell line), SW620 (colorectal cancer cell line), PANC08.13 (RPM11640+10% FBS+10 units/mL Insulin, pancreatic cancer cell line). Test and control compounds are dispensed as nanoliter drops according to desired final concentrations in 0.1% DMSO using Echo Acoustic Dispenser onto 384 assay plates (Corning, Cat #3764) prior to cell seeding. Cells were seeded in 40 μL volume per well at the following cell densities (cells per well): H358 (300), SW620 (750), PANC 08.13 (600). Cells are incubated in the presence of compound for 7-days. Viability is determined on Day 7 using CellTiter-Glo® (CTG) Luminescent Cell Viability Assay (Promega). CTG is added to a […] per well and incubated at room temperature for 15 minutes before luminescence is captured using an EnVision Reader with LUM384 US protocol. Data is analyzed using Activity Base to determine compound response and will be represented either as a percent effect (PCTEFF) or percent control (PCTOCTL) as described: Zero percent effect control (ZPE) (Negative control)—100% DMSO. Hundred percent effect (HPE) (Positive control)—1 uM Trametinib (GSK1120212, MEK inhibitor) (4 nl of 10 mM and 36 nl of DMSO per well). The following equations/nomenclature are used (% Effect; PCTEFF) and (% of Control; PCTOCTL): PCTEFF: 100*(Raw_Data_Value−HPE/ZPE−HPE), PCTOCTL: 100*Raw_Data_Value/User_Defined_Array), where the User_Defined_Array is either summarized HPE or ZPE.
(§6) Cells with “nd” indicate compound not tested in that particular assay at time of writing. It is to be understood that the geomean IC50 data may change slightly over time with increasing repeat data (ie: increasing n #).

[2] = tested on: SW620 (colorectal cancer cell line); experiment: KRAS Cell Titer Glo (CTG) cell proliferation assay, SW620; assay type: cell-based; conditions: Homo sapiens, SW-620, 168 h; SW620 cells, 7-day CTG, geomean IC50
From the text: as §4, §5, §6

[3] = tested on: PANC08.13 (pancreatic cancer cell line); experiment: KRAS Cell Titer Glo (CTG) cell proliferation assay, PANC08.13; assay type: cell-based; conditions: Homo sapiens, PANC-08-13, 168 h; PANC08.13 cells, 7-day CTG, geomean IC50
From the text: as §4, §5, §6

Sequence of KRAS Wild Type (P01116 other isoform, or with tags, fused parts or gaps): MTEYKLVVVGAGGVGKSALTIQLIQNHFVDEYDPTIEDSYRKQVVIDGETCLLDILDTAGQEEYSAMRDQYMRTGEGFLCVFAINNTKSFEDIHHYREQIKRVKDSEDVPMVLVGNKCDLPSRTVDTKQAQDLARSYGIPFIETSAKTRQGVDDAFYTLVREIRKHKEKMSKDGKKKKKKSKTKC

Kd (KRAS Wild Type)	Kd (KRAS G12D)	Kd (KRAS G12C)	Kd (KRAS G12V)	IC50 [1]	IC50 [2]	IC50 [3]	Structure (SMILES)
10 nM	6 nM	7 nM	5 nM	54 nM	115 nM	11 nM	C=C1CN2CCC[C@@]2(COc2nc3c4c(nc(-c5c([C@H]6C[C@H]6C)c(Cl)cc6[nH]ncc56)c(F)c4n2)OC[C@@H]2COCCCN32)C1 (single isomer, unassigned) [Example 31, (8aS)-5-{6-chloro-5-[(1S*,2R*)-2-methylcyclopropyl]-1H-indazol-4-yl}-4-fluoro-2-{[(7aS)-2-methylidenetetrahydro-1H-pyrrolizin-7a(5H)-yl]methoxy}-8a,9,12,13-tetrahydro-8H,11H-7,10-dioxa-1,3,6,13a-tetraazanaphtho[1,8-ab]heptalene]
34 nM	28 nM	15 nM	24 nM	173 nM	139 nM	22 nM	C=C1CN2CCC[C@@]2(COc2nc3c4c(nc(-c5c(C)c(Cl)cc6[nH]ncc56)c(F)c4n2)OC[C@@H]2COCCCN32)C1 [Example 7, (8aS)-5-(6-chloro-5-methyl-1H-indazol-4-yl)-4-fluoro-2-{[(7aS)-2-methylidenetetrahydro-1H-pyrrolizin-7a(5H)-yl]methoxy}-8a,9,12,13-tetrahydro-8H,11H-7,10-dioxa-1,3,6,13a-tetraazanaphtho[1,8-ab]heptalene]
4 nM	2 nM	5 nM	4 nM	30 nM	31 nM	3 nM	F/C=C1/CN2CCC[C@@]2(COc2nc3c4c(nc(-c5c(C6CC6)c(Cl)cc6[nH]ncc56)c(F)c4n2)OC[C@@H]2COCCCN32)C1 [Example 15, (8aS)-5-(6-chloro-5-cyclopropyl-1H-indazol-4-yl)-4-fluoro-2-{[(2E,7aS)-2-(fluoromethylidene)tetrahydro-1H-pyrrolizin-7a(5H)-yl]methoxy}-8a,9,12,13-tetrahydro-8H,11H-7,10-dioxa-1,3,6,13a-tetraazanaphtho[1,8-ab]heptalene]
5 nM	3 nM	5 nM	4 nM	80 nM	190 nM	31 nM	C=C1CN2C[C@@H](O)C[C@@]2(COc2nc3c4c(nc(-c5c(C6CC6)c(Cl)cc6[nH]ncc56)c(F)c4n2)OC[C@@H]2COCCCN32)C1 [Example 17, (2S,7aR)-7a-({[(8aS)-5-(6-chloro-5-cyclopropyl-1H-indazol-4-yl)-4-fluoro-8a,9,12,13-tetrahydro-8H,11H-7,10-dioxa-1,3,6,13a-tetraazanaphtho[1,8-ab]heptalen-2-yl]oxy}methyl)-6-methylidenehexahydro-1H-pyrrolizin-2-ol]

Continued, compound first:

Structure (SMILES)	Kd (KRAS Wild Type)	Kd (KRAS G12D)	Kd (KRAS G12C)	Kd (KRAS G12V)	IC50 [1]	IC50 [2]	IC50 [3]
C=C1CN2CC[C@@H](O)[C@@]2(COc2nc3c4c(nc(-c5c(C6CC6)c(Cl)cc6[nH]ncc56)c(F)c4n2)OC[C@@H]2COCCCN32)C1 (relative stereo) [Example 45, (1R,7aS*)-7a-({[(8aS)-5-(6-chloro-5-cyclopropyl-1H-indazol-4-yl)-4-fluoro-8a,9,12,13-tetrahydro-8H,11H-7,10-dioxa-1,3,6,13a-tetraazanaphtho[1,8-ab]heptalen-2-yl]oxy}methyl)-6-methylidenehexahydro-1H-pyrrolizin-1-ol]	3 nM	1 nM	3 nM	2 nM	19 nM	32 nM	20 nM
C=C1CN2CCC[C@@]2(COc2nc3c4c(nc(-c5c([C@@H]6C[C@@H]6C)c(Cl)cc6[nH]ncc56)c(F)c4n2)OC[C@@H]2COCCCN32)C1 (single isomer, unassigned) [Example 30, (8aS)-5-{6-chloro-5-[(1R*,2S*)-2-methylcyclopropyl]-1H-indazol-4-yl}-4-fluoro-2-{[(7aS)-2-methylidenetetrahydro-1H-pyrrolizin-7a(5H)-yl]methoxy}-8a,9,12,13-tetrahydro-8H,11H-7,10-dioxa-1,3,6,13a-tetraazanaphtho[1,8-ab]heptalene]	4 nM	2 nM	3 nM	4 nM	51 nM	102 nM	4 nM
C=C1CN2CCC[C@@]2(COc2nc3c4c(nc(-c5c([C@@H]6C[C@H]6C)c(Cl)cc6[nH]ncc56)c(F)c4n2)OC[C@@H]2COCCCN32)C1 (single isomer, unassigned) [Example 51, (8aS)-5-{6-chloro-5-[(1R*,2R*)-2-methylcyclopropyl]-1H-indazol-4-yl}-4-fluoro-2-{[(7aS)-2-methylidenetetrahydro-1H-pyrrolizin-7a(5H)-yl]methoxy}-8a,9,12,13-tetrahydro-8H,11H-7,10-dioxa-1,3,6,13a-tetraazanaphtho[1,8-ab]heptalene]	12 nM	6 nM	8 nM	7 nM	27 nM	40 nM	10 nM
C=C1CN2CCC[C@@]2(COc2nc3c4c(nc(-c5c6c(cc7[nH]ncc57)CCC[C@H]6OC)c(F)c4n2)OC[C@@H]2COCCCN32)C1 (single isomer, unassigned) [Example 56, (8aS)-4-fluoro-5-[(5R*)-5-methoxy-5,6,7,8-tetrahydro-1H-benzo[f]indazol-4-yl]-2-{[(7aS)-2-methylidenetetrahydro-1H-pyrrolizin-7a(5H)-yl]methoxy}-8a,9,12,13-tetrahydro-8H,11H-7,10-dioxa-1,3,6,13a-tetraazanaphtho[1,8-ab]heptalene]	23 nM	34 nM	10 nM	23 nM	172 nM	63 nM	135 nM
C=C1CN2CCC[C@@]2(COc2nc3c4c(nc(-c5c(Cl)c(C)cc6[nH]ncc56)c(F)c4n2)OC[C@@H]2COCCCN32)C1 [Example 8]	117 nM	141 nM	176 nM	105 nM	263 nM	294 nM	48 nM
C=C1CN2CC(F)C[C@@]2(COc2nc3c4c(nc(-c5c(C6CC6)c(Cl)cc6[nH]ncc56)c(F)c4n2)OC[C@@H]2COCCCN32)C1 (stereo partly drawn) [Example 14, (8aS)-5-(6-chloro-5-cyclopropyl-1H-indazol-4-yl)-4-fluoro-2-{[(2R,7aR)-2-fluoro-6-methylidenetetrahydro-1H-pyrrolizin-7a(5H)-yl]methoxy}-8a,9,12,13-tetrahydro-8H,11H-7,10-dioxa-1,3,6,13a-tetraazanaphtho[1,8-ab]heptalene]	8 nM	5 nM	9 nM	7 nM	80 nM	30 nM	13 nM
Fc1c(-c2c(C3CC3)c(Cl)cc3[nH]ncc23)nc2c3c(nc(OC[C@@]45CCCN4CC4(CC4)C5)nc13)N1CCCOC[C@H]1CO2 [Example 18, (8aS)-2-{[(7′aS)-dihydro-1′H,3′H-spiro[cyclopropane-1,2′-pyrrolizin]-7′a(5′H)-yl]methoxy}-5-(6-chloro-5-cyclopropyl-1H-indazol-4-yl)-4-fluoro-8a,9,12,13-tetrahydro-8H,11H-7,10-dioxa-1,3,6,13a-tetraazanaphtho[1,8-ab]heptalene]	61 nM	34 nM	64 nM	61 nM	304 nM	479 nM	68 nM
